Test results: patent US9635854B2, “Controlling red rice with mesotrione” (FMC Corporation, priority 2014, dated 2017)
Where two headings read alike, the source gives them in different places.

Legend:
[1] = tested on: Rice (Oryza sativa) 'Jupiter'; conditions: PRE, direct-seeded dryland rice
Description: (§1) Rice (Oryza sativa) was planted in 6″ by 10″ fiber flats filled with sterile top soil. Five rows were made in each flat and the three rice varieties (′Cybonee, ‘Jupiter’, and ‘Taggart’) were planted in the center 3 rows and a row of red rice (Oryza sativa) was planted on either end of the flat. The flats were watered after planting. After application flats were placed in the greenhouse and lightly watered. […] The flats were moved to a greenhouse and watered and fertilized routinely. Studies were conducted using randomized complete block design with four replications. In both studies, visual percent red rice control and rice injury were recorded at 14, 21, and 28 days after treatment (DAT), using a scale of 0 (no control/injury) to 100 (complete plant death).

[2] = tested on: Rice (Oryza sativa) 'Taggart'; conditions: PRE, direct-seeded dryland rice
Description: as §1

[3] = tested on: Rice (Oryza sativa) 'Cybonee'; conditions: PRE, direct-seeded dryland rice
Description: as §1

[4] = tested on: large crabgrass (Digitaria sanguinalis); experiment: Pre-emergent weed control in direct-seeded flooded rice (Example 2); assay type: in vivo; conditions: 28 Days After Treatment
Description: (§2) Seeds of crops, rice (Taggart and Wells varieties) and weeds, yellow nutsedge (Cyperus esculentus), barnyardgrass (Echinochloa crus-galli), large crabgrass (Digitaria sanguinalis), hemp sesbania (Sesbania herbacea), Benghal dayflower (Commelina benghalensis), red rice (Oryza sativa) and broadleaf signalgrass (Urochloa platyphylla) were planted in two gallon pots containing top soil. Each pot was watered well before the application of mesotrione (Callisto® Herbicide from Syngenta Crop Protection).

[5] = tested on: Benghal dayflower (Commelina benghalensis); experiment: as above; assay type: in vivo; conditions: 28 Days After Treatment
Description: as §2

red rice (Oryza sativa) = experiment: as above; assay type: in vivo; conditions: for % weed control Red Rice: pre-emergent, flooded, 28 Days After Treatment
Description: as §2

[6] = tested on: broadleaf signalgrass (Urochloa platyphylla); experiment: as above; assay type: in vivo; conditions: 28 Days After Treatment
Description: as §2

[7] = tested on: barnyardgrass (Echinochloa crus-galli); experiment: as above; assay type: in vivo; conditions: 28 Days After Treatment
Description: as §2

[8] = tested on: hemp sesbania (Sesbania herbacea); experiment: as above; assay type: in vivo; conditions: 28 Days After Treatment
Description: as §2

[9] = tested on: yellow nutsedge (Cyperus esculentus); experiment: as above; assay type: in vivo; conditions: for % weed control Nutsedge: pre-emergent, flooded, 28 Days After Treatment
Description: as §2

yellow nutsedge = experiment: Direct seeded dryland rice test, pre-emergent (FIG. 2); assay type: in vivo; conditions: pre-emergent treatment at 25 g ai/ha
large crabgrass = experiment: as above; assay type: in vivo; conditions: pre-emergent treatment at 25 g ai/ha
[10] = pre-emergent treatment at 50 g ai/ha, flooded rice test

## CS(=O)(=O)c1ccc(C(=O)C2C(=O)CCCC2=O)c([N+](=O)[O-])c1 [Mesotrione, mesotrione]
[1]; 14 DAT, 12.5 g ai/ha
  Percent rice injury Jupiter: 0 E %
[1]; 14 DAT, 25 g ai/ha
  Percent rice injury Jupiter: 0 E %
[1]; 14 DAT, 37.5 g ai/ha
  Percent rice injury Jupiter: 2 DE %
[1]; 14 DAT, 50 g ai/ha
  Percent rice injury Jupiter: 3 DE %
[1]; 14 DAT, 62.5 g ai/ha
  Percent rice injury Jupiter: 5 CD %
[1]; 14 DAT, 75 g ai/ha
  Percent rice injury Jupiter: 8 BC %
[1]; 14 DAT, 87.5 g ai/ha
  Percent rice injury Jupiter: 10 BC %
[1]; 14 DAT, 100 g ai/ha
  Percent rice injury Jupiter: 11 B %
[1]; 21 DAT, 12.5 g ai/ha
  Percent rice injury Jupiter: 0 E %
[1]; 21 DAT, 25 g ai/ha
  Percent rice injury Jupiter: 0 E %
[1]; 21 DAT, 37.5 g ai/ha
  Percent rice injury Jupiter: 2 DE %
[1]; 21 DAT, 50 g ai/ha
  Percent rice injury Jupiter: 6 CDS %
[1]; 21 DAT, 62.5 g ai/ha
  Percent rice injury Jupiter: 7 CD %
[1]; 21 DAT, 75 g ai/ha
  Percent rice injury Jupiter: 10 BC %
[1]; 21 DAT, 87.5 g ai/ha
  Percent rice injury Jupiter: 11 BC %
[1]; 21 DAT, 100 g ai/ha
  Percent rice injury Jupiter: 14 B %
[1]; 28 DAT, 12.5 g ai/ha
  Percent rice injury Jupiter: 0 D %
[1]; 28 DAT, 25 g ai/ha
  Percent rice injury Jupiter: 0 D %
[1]; 28 DAT, 37.5 g ai/ha
  Percent rice injury Jupiter: 1 D %
[1]; 28 DAT, 50 g ai/ha
  Percent rice injury Jupiter: 6 CD %
[1]; 28 DAT, 62.5 g ai/ha
  Percent rice injury Jupiter: 8 CD %
[1]; 28 DAT, 75 g ai/ha
  Percent rice injury Jupiter: 21 BC %
[1]; 28 DAT, 87.5 g ai/ha
  Percent rice injury Jupiter: 26 B %
[1]; 28 DAT, 100 g ai/ha
  Percent rice injury Jupiter: 56 A %
[2]; 14 DAT, 12.5 g ai/ha
  Percent rice injury Taggart: 0 E %
[2]; 14 DAT, 25 g ai/ha
  Percent rice injury Taggart: 0 E %
[2]; 14 DAT, 37.5 g ai/ha
  Percent rice injury Taggart: 1 E %
[2]; 14 DAT, 50 g ai/ha
  Percent rice injury Taggart: 2 DE %
[2]; 14 DAT, 62.5 g ai/ha
  Percent rice injury Taggart: 6 C %
[2]; 14 DAT, 75 g ai/ha
  Percent rice injury Taggart: 5 CD %
[2]; 14 DAT, 87.5 g ai/ha
  Percent rice injury Taggart: 9 BC %
[2]; 14 DAT, 100 g ai/ha
  Percent rice injury Taggart: 11 B %
[2]; 21 DAT, 12.5 g ai/ha
  Percent rice injury Taggart: 0 C %
[2]; 21 DAT, 25 g ai/ha
  Percent rice injury Taggart: 0 C %
[2]; 21 DAT, 37.5 g ai/ha
  Percent rice injury Taggart: 1 BC %
[2]; 21 DAT, 50 g ai/ha
  Percent rice injury Taggart: 5 BC %
[2]; 21 DAT, 62.5 g ai/ha
  Percent rice injury Taggart: 9 BC %
[2]; 21 DAT, 75 g ai/ha
  Percent rice injury Taggart: 10 BC %
[2]; 21 DAT, 87.5 g ai/ha
  Percent rice injury Taggart: 11 BC %
[2]; 21 DAT, 100 g ai/ha
  Percent rice injury Taggart: 13 B %
[2]; 28 DAT, 12.5 g ai/ha
  Percent rice injury Taggart: 0 D %
[2]; 28 DAT, 25 g ai/ha
  Percent rice injury Taggart: 0 D %
[2]; 28 DAT, 37.5 g ai/ha
  Percent rice injury Taggart: 1 D %
[2]; 28 DAT, 50 g ai/ha
  Percent rice injury Taggart: 6 CD %
[2]; 28 DAT, 62.5 g ai/ha
  Percent rice injury Taggart: 12 BCD %
[2]; 28 DAT, 75 g ai/ha
  Percent rice injury Taggart: 23 BC %
[2]; 28 DAT, 87.5 g ai/ha
  Percent rice injury Taggart: 29 B %
[2]; 28 DAT, 100 g ai/ha
  Percent rice injury Taggart: 50 A %
[3]; 14 DAT, 12.5 g ai/ha
  Percent rice injury Cybonet: 6 BCD %
[3]; 14 DAT, 25 g ai/ha
  Percent rice injury Cybonet: 1 D %
[3]; 14 DAT, 37.5 g ai/ha
  Percent rice injury Cybonet: 1 D %
[3]; 14 DAT, 50 g ai/ha
  Percent rice injury Cybonet: 1 D %
[3]; 14 DAT, 62.5 g ai/ha
  Percent rice injury Cybonet: 4 D %
[3]; 14 DAT, 75 g ai/ha
  Percent rice injury Cybonet: 5 CD %
[3]; 14 DAT, 87.5 g ai/ha
  Percent rice injury Cybonet: 11 BC %
[3]; 14 DAT, 100 g ai/ha
  Percent rice injury Cybonet: 12 B %
[3]; 21 DAT, 12.5 g ai/ha
  Percent rice injury Cybonet: 5 DE %
[3]; 21 DAT, 25 g ai/ha
  Percent rice injury Cybonet: 1 E %
[3]; 21 DAT, 37.5 g ai/ha
  Percent rice injury Cybonet: 1 E %
[3]; 21 DAT, 50 g ai/ha
  Percent rice injury Cybonet: 5 DE %
[3]; 21 DAT, 62.5 g ai/ha
  Percent rice injury Cybonet: 5 DE %
[3]; 21 DAT, 75 g ai/ha
  Percent rice injury Cybonet: 8 BCD %
[3]; 21 DAT, 87.5 g ai/ha
  Percent rice injury Cybonet: 12 BC %
[3]; 21 DAT, 100 g ai/ha
  Percent rice injury Cybonet: 13 B %
[3]; 28 DAT, 12.5 g ai/ha
  Percent rice injury Cybonet: 5 DE %
[3]; 28 DAT, 25 g ai/ha
  Percent rice injury Cybonet: 1 E %
[3]; 28 DAT, 37.5 g ai/ha
  Percent rice injury Cybonet: 1 E %
[3]; 28 DAT, 50 g ai/ha
  Percent rice injury Cybonet: 6 DE %
[3]; 28 DAT, 62.5 g ai/ha
  Percent rice injury Cybonet: 9 DE %
[3]; 28 DAT, 75 g ai/ha
  Percent rice injury Cybonet: 15 CD %
[3]; 28 DAT, 87.5 g ai/ha
  Percent rice injury Cybonet: 25 BC %
[3]; 28 DAT, 100 g ai/ha
  Percent rice injury Cybonet: 33 AB %
[4]; 6 g ai/ha
  % weed control Crabgrass: 70%
[4]; 12 g ai/ha
  % weed control Crabgrass: 100%
[4]; 25 g ai/ha
  % weed control Crabgrass: 100%
[4]; 50 g ai/ha
  % weed control Crabgrass: 100%
[4]; 100 g ai/ha
  % weed control Crabgrass: 100%
[4]; 200 g ai/ha
  % weed control Crabgrass: 100%
[5]; 6 g ai/ha
  % weed control Dayflower: 17%
[5]; 12 g ai/ha
  % weed control Dayflower: 63%
[5]; 25 g ai/ha
  % weed control Dayflower: 67%
[5]; 50 g ai/ha
  % weed control Dayflower: 93%
[5]; 100 g ai/ha
  % weed control Dayflower: 83%
[5]; 200 g ai/ha
  % weed control Dayflower: 90%
Red rice (Oryza sativa); [10]
  red rice control (words, FIG. 1): controlled
Red rice (Oryza sativa); 6 g ai/ha
  % weed control Red Rice: 23%
Red rice (Oryza sativa); 12 g ai/ha
  % weed control Red Rice: 33%
Red rice (Oryza sativa); 25 g ai/ha
  % weed control Red Rice: 90%
Red rice (Oryza sativa); 50 g ai/ha
  % weed control Red Rice: 100%
Red rice (Oryza sativa); 100 g ai/ha
  % weed control Red Rice: 97%
Red rice (Oryza sativa); 200 g ai/ha
  % weed control Red Rice: 100%
Red rice (Oryza sativa); summary of Table 7 data
  red rice control: controls
[6]; 6 g ai/ha
  % weed control Signalgrass: 23%
[6]; 12 g ai/ha
  % weed control Signalgrass: 23%
[6]; 25 g ai/ha
  % weed control Signalgrass: 57%
[6]; 50 g ai/ha
  % weed control Signalgrass: 90%
[6]; 100 g ai/ha
  % weed control Signalgrass: 98%
[6]; 200 g ai/ha
  % weed control Signalgrass: 100%
[7]; 6 g ai/ha
  % weed control Barnyardgrass: 10%
[7]; 12 g ai/ha
  % weed control Barnyardgrass: 32%
[7]; 25 g ai/ha
  % weed control Barnyardgrass: 35%
[7]; 50 g ai/ha
  % weed control Barnyardgrass: 62%
[7]; 100 g ai/ha
  % weed control Barnyardgrass: 82%
[7]; 200 g ai/ha
  % weed control Barnyardgrass: 100%
[8]; 6 g ai/ha
  % weed control Hemp: 0%
[8]; 12 g ai/ha
  % weed control Hemp: 30%
[8]; 25 g ai/ha
  % weed control Hemp: 13%
[8]; 50 g ai/ha
  % weed control Hemp: 45%
[8]; 100 g ai/ha
  % weed control Hemp: 98%
[8]; 200 g ai/ha
  % weed control Hemp: 100%
[9]; [10]
  yellow nutsedge control (words, FIG. 1): controlled
[9]; 6 g ai/ha
  % weed control Nutsedge: 38%
[9]; 12 g ai/ha
  % weed control Nutsedge: 77%
[9]; 25 g ai/ha
  % weed control Nutsedge: 92%
[9]; 50 g ai/ha
  % weed control Nutsedge: 97%
[9]; 100 g ai/ha
  % weed control Nutsedge: 100%
[9]; 200 g ai/ha
  % weed control Nutsedge: 100%
Yellow nutsedge
  yellow nutsedge control (words, FIG. 2): controlled
Large crabgrass
  large crabgrass control (words, FIG. 2): controlled
